Test results as given in patent US12077531B2, “Imidazopyridinone compound” (KISSEI PHARMACEUTICAL CO., LTD., priority 2018, dated 2024).
Read-outs that look alike come from different tables or passages of the source.

Legend:
[1] = system: TNBS induced colitis model rat; test: Therapeutic effect in TNBS induced colitis model rat (intestinal permeability of FITC); type: in vivo; settings: po, 72 h, 3 mg/kg orally once a day for 3 days, SD rats, mean, test compounds-free group 0, TNBS-untreated group 100, read-out: Inhibition (%): suppressive rate on the intestinal permeability
Method: Test Example 2 Therapeutic Effect in Colitis Model
(1) TNBS Induced Colitis Model Rat
SD rats: 8-weeks-old male SLC (Japan SLC) were used. Under pentobarbital anesthesia, 300 μL of TNBS (28 mg/mL) prepared by 50% ethanol was administered at a point 8 cm from anus in large intestine to cause inflammation. To the solvent-treated group was administrated 300 μL of 50% ethanol. Animals were fasted for 48 hours prior to administration of TNBS. Test compounds (3 mg/kg) prepared by 0.05% methylcellulose solution were orally administered once a day from next day, and it was administered for a total of 3 days. After administering for 3 days, 50 mg/kg FITC was orally administered at 4 hours after administration. Blood samples were collected from jugular vein under isoflurane anesthesia after 4 hours. The serum was centrifuged and fluorescence intensity was detected by PHERAstar FSX (BMG Labtech) to measure the concentration of FITC permeating into circulating blood through the mesentery. The suppressive rate on the intestinal permeability of test compounds was calculated based on the value of test compounds-free group as 0 and the value of TNBS-untreated group as 100.

human PHD2184-418 = human PHD2184-418 (Homo sapiens (Human), UniProt Q9GZT9); test: PHD2 inhibitory test (fluorescence polarization, binding between PHD2 and HIF-1α); settings: human PHD2184-418, FITC-labeled HIF-1α556-574, 2 μM 2-oxoglutarate, 37° C. 60 minutes
Sequence of human PHD2184-418 (Q9GZT9 184-418): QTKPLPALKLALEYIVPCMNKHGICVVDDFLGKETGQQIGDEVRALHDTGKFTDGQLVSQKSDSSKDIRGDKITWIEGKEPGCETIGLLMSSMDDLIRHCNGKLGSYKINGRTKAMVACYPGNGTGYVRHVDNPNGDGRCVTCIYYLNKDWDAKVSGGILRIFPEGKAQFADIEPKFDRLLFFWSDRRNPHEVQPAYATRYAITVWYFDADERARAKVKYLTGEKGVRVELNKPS
Procedure, shortened: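 N-His-tagged human PHD2 (residues 184–418, E. coli-expressed) was preincubated with compound, then FITC-Ahx-HIF-1α556-574 peptide was added in pH 7.4 HEPES buffer with 10 μM MnCl2 and 2 μM 2-oxoglutarate. After 60 min at 37 °C, fluorescence polarization (ex 470/em 530 nm) was read. Inhibition was calculated against compound-free wells.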

[2] = Rat PK study: concentration of compounds in large intestine tissue and plasma; type: in vivo; settings: male, SD, 3 mg/kg oral; for Kp at 8 h: large intestine tissue / plasma, read-out: C/P: ratio of the above Colon and Plasma; for AUC / Cmax: non-fasted; for AUC: read-out: AUC: area under the plasma test compound concentration-time curve (converted); for Cmax: read-out: Cmax: maximum plasma concentration of test compounds in the case of oral administration
Method: Test Example 3 Concentration of Compounds in Large Intestine Tissue
Test compounds (3 mg/kg/5 mL) prepared by 0.05% methylcellulose were orally administered to non-fasted rats (SD, 8-weeks-old, male, Japan SLC). Blood samples were collected from jugular vein at 0.25, 0.5, 1, 2, 4, 6 and 8 hours after the administration. Laparotomy was performed under isoflurane anesthesia and large intestine was isolated. Collected distal large intestine (about 5 cm) was cut open, and then the large intestine was washed with saline on a dish. After washing, the large intestine was minced by a small scissors. About 150 mg thereof was moved to tube. To the tube was added 100 μL of saline, the mixture was homogenized using shake master (1000 rpm×30 minutes). Samples were prepared by the addition with quadruple volume of saline as final volume. The concentrations of the test compound in large intestine tissue and plasma were measured through a quantitative analysis using liquid chromatography-mass spectrometry (LC/MS).

[3] = large intestine tissue (distal large intestine), read-out: Colon: concentrations of the test compound in large intestine tissue after 8 hours
[4] = plasma, read-out: Plasma: plasma test compound concentration after 8 hours

Row | Structure (SMILES) | inhibition in vivo at 3 mg/kg [1] [%] | IC50 (human PHD2184-418) [nM] | concentration at 8 h [2, 3] [ng/g] | Kp at 8 h [2] | concentration at 8 h [2, 4] [ng/mL] | AUC ([2]; plasma) [ng·h/mL] | Cmax ([2]; plasma) [ng/mL]
1 | Cn1c(C(=O)O)cnc1CN1CC[C@H](n2c(=O)n(-c3ccc(-c4ccc(C(=O)O)cc4)cc3O)c3cccnc32)C1 [Example 49, (S)-2-((3-(1-(4′-Carboxy-3-hydroxy-[1,1′-biphenyl]-4-yl)-2-oxo-1,2-dihydro-3H-imidazo[4,5-b]pyridin-3-yl)pyrrolidin-1-yl)methyl)-1-methyl-1H-imidazole-5-carboxylic acid] | 82 | 120 | 201 | > 201 | < 1 | 15 | 4
2 | Cn1c(C(=O)O)cnc1CN1CC[C@H](n2c(=O)n(-c3ccc(-c4ccc(C(=O)O)cc4)cc3)c3cccnc32)C1 [Example 83, (S)-2-((3-(1-(4′-Carboxy-[1,1′-biphenyl]-4-yl)-2-oxo-1,2-dihydro-3H-imidazo[4,5-b]pyridin-3-yl)pyrrolidin-1-yl)methyl)-1-methyl-1H-imidazole-5-carboxylic acid] | 85 | 140 | 54 | > 54 | < 1 | 21.5 | 5
3 | Cn1c(C(=O)O)cnc1CN1CC[C@H](n2c(=O)n(-c3ccc(-c4ccc(C(=O)O)cc4)c(O)c3)c3cccnc32)C1 [Example 84, (S)-2-((3-(1-(4′-Carboxy-2-hydroxy-[1,1′-biphenyl]-4-yl)-2-oxo-1,2-dihydro-3H-imidazo[4,5-b]pyridin-3-yl)pyrrolidin-1-yl)methyl)-1-methyl-1H-imidazole-5-carboxylic acid] | 117 | 150 | 99 | > 99 | < 1 | 1.27 | 1
